Earlier results as cited in patent US10918627B2, “Convergent and enantioselective total synthesis of Communesin analogs” (Massachusetts Institute of Technology, priority 2016, dated 2021).
In brackets after ≈: the same amount, converted by molar mass.

Experiments:
[1] = test system: human leukemia cell lines; details: array of human leukemia cell lines; Jadulco 2004
[2] = test system: brine shrimp Artemia salina; details: Jadulco 2004
[3] = test system: third instar larvae of silkworms; details: Hayashi 2004
[4] = test system: bradycardia caused by astemidazole; details: at different concentrations, Fan 2015
[5] = Fan 2015
cardiovascular vessels = details: Fan 2015
[6] = test system: mouse P-388 lymphocytic leukemia cells; details: cultured mouse P-388 lymphocytic leukemia cells; Numata 1993

Compound	anti-proliferative activity [1]	LD50 toxicity [2]	insecticidal activity (comparative, in words) [3]	mitigative effect on bradycardia [4]	vasculogenetic activity [5]	promotion of the function of cardiovascular vessels (cardiovascular vessels)	ED50 cytotoxicity [6]	LD50 insecticidal ([3]; oral administration)
C/C=C/C=C/C(=O)N1CC[C@@]23c4ccccc4N[C@@H]4N(C=O)c5cccc6c5[C@@]42CCN([C@@H]13)[C@@H]6[C@H]1OC1(C)C [Compound 6, communesin D]	moderate anti-proliferative activity	0.57 µg/mL	lower insecticidal activities	–	–	–	–	–
CCC[C@H](O)CC(=O)N1CC[C@@]23c4ccccc4N[C@@H]4N(C)c5cccc6c5[C@@]42CCN([C@@H]13)[C@@H]6[C@H]1OC1(C)C [Compound 9, communesin I]	–	–	–	significant mitigative effect	moderate vasculogenetic activity	moderately promote	–	–
CC(=O)N1CC[C@@]23c4ccccc4N[C@@H]4N(C)c5cccc6c5[C@@]42CCN([C@@H]13)[C@@H]6[C@H]1OC1(C)C [Compound 2, Communesin A]	–	–	lower insecticidal activities	significant mitigative effect	moderate vasculogenetic activity	moderately promote	3.5 µg/mL (≈ 7.67 µM)	–
Communesin E [Compound 3]	–	–	lower insecticidal activities	–	–	–	–	–
CC(=O)N1CC[C@@]23c4ccccc4N[C@@H]4N(C)c5cccc6c5[C@@]42CCN([C@@H]6C=C(C)C)[C@@H]13 [Compound 1, (−)-Communesin F]	–	–	lower insecticidal activities	–	–	–	–	–
C/C=C/C=C/C(=O)N1CC[C@@]23c4ccccc4N[C@@H]4Nc5cccc6c5[C@@]42CCN([C@@H]13)[C@@H]6[C@H]1OC1(C)C [Compound 5, communesin C]	moderate anti-proliferative activity	1.96 µg/mL	–	–	–	–	–	–
C/C=C/C=C/C(=O)N1CC[C@@]23c4ccccc4N[C@@H]4N(C)c5cccc6c5[C@@]42CCN([C@@H]13)[C@@H]6[C@H]1OC1(C)C [Compound 4, Communesin B]	moderate anti-proliferative activity	0.30 µg/mL	most active	significant mitigative effect	–	–	0.45 µg/mL (≈ 0.885 µM)	5 μg/g of diet
